Common to all, as to type: binding
Assay [1] addresses T1, PCSK9 (Homo sapiens, UniProt Q8NBP7).
T1 construct: biotin (biotinylated); purchased
Nature of the assay: PCSK9 Alexa FRET Plus TR-FRET assay. An outline of the steps:
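Compounds displace an AlexaFluor-labeled cyclic peptide (1920 nM solution, not final) from europium-tagged PCSK9; time-resolved FRET read after ≥2 h at room temperature. Ki derived from fitted IC50 and peptide KD, europium donor counts monitored to detect compound interference, results given in nanomolar.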
(In TR-FRET formats the signal depends on donor and acceptor labels being close together.)

The target of assay [2] is T1, PCSK9. Nature of the assay: PCSK9 Alexa FRET Standard TR-FRET assay. Particulars: Ki calculated from IC50 and KD of AF cyclic peptide Reagent A; 0.5 nM PCSK9, 20 nM AF cyclic peptide; read-out: Alexa FRET Stdt TR-FRET. An outline of the steps:
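Ki (nM) calculated from sigmoidal-fit IC50 and the KD of an AlexaFluor-labelled cyclic peptide (20 nM final) competing with compound for biotinylated PCSK9 (0.5 nM) bound to Eu-streptavidin (1.25 nM). Incubation at least 2 h, room temperature, HEPES pH 7.4 buffer with CaCl2; falling europium counts flag false positives.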

For assay [3], the target named is T1, PCSK9. Nature of the assay: PCSK9 Alexa FRET Ultra TR-FRET assay. The procedure, abridged:
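TR-FRET read after ≥2 h at room temperature between europium-PCSK9 and an AlexaFluor cyclic peptide, stated as a 1920 nM solution. Sigmoidal nonlinear regression gives IC50, and Ki in nM follows from the peptide KD; europium counts are monitored for compound interference.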

Setting [4] is: Ki calculated from IC50 and KD of AF cyclic peptide Reagent B, 0.5 nM PCSK9, 960 nM AF cyclic peptide, read-out: Alexa FRET Plus TR-FRET.
[5] abbreviates: Ki Ultra, calculated from IC50 and KD of AF cyclic peptide, 0.5 nM PCSK9, 960 nM AF cyclic peptide, read-out: Alexa FRET Ultra TR-FRET.

The values below come from patent publication US12178842B2, “PCSK9 antagonist compounds” (MERCK SHARP & DOHME LLC, priority 2019, dated 2024).

Structures are written as SMILES.

T1 sequence (Q8NBP7 153-692): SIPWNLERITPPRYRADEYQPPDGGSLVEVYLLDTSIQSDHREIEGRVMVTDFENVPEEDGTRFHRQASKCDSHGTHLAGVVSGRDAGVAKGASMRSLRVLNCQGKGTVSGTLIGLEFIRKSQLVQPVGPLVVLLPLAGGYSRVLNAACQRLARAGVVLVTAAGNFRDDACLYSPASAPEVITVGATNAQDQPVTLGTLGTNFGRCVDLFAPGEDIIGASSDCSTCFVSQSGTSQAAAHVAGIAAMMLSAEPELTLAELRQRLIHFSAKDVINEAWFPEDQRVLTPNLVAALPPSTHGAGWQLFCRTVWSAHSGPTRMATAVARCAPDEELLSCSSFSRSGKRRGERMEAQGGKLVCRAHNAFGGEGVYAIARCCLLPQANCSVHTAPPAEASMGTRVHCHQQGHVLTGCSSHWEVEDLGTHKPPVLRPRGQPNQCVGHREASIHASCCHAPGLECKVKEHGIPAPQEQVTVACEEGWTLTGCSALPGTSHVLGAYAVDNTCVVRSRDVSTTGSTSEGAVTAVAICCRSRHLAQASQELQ

As for `COc1ccc(C[C@@H]2NC(=O)[C@H]([C@@H](C)O)NC(=O)[C@@H]3[C@@H]4CCN3C(=O)[C@@H]3Cc5cn(c6ccc(F)cc56)CCCCCCN(Cc5ccc(cc5)CCNC(=O)[C@]5(C)CCCN5C2=O)C(=O)CCC(=O)N[C@@H](C)C(=O)N[C@H](CNC(=O)COCCOCC[N+](C)(C)CCNC(=O)COCCOCCNC(=O)COCCOCCNC(=O)CC[C@H](NC(=O)CCCCCCCCOCCCCCCCCC(=O)O)C(=O)O)C(=O)N[C@@H](Cc2cccc(c2)CNC(=O)CO4)C(=O)N3)cc1` [Ex-50], the Ki in assay [1] is less than 0.006 nM; in assay [2], less than 1.26 nM; in assay [3], 0.005 nM.
For `COc1ccc(C[C@@H]2NC(=O)[C@H]([C@@H](C)O)NC(=O)[C@@H]3[C@@H]4CCN3C(=O)[C@@H]3Cc5cn(c6ccc(F)cc56)CCCCCN(Cc5ccc(cc5)CCNC(=O)[C@]5(C)CCCN5C2=O)C(=O)CCC(=O)N[C@@H](C)C(=O)N[C@H](CNC(=O)CCOCCOCC[N+](C)(C)CCNC(=O)COCCOCCNC(=O)COCCOCCNC(=O)CC[C@H](NC(=O)CC[C@H](NC(=O)CCCCCCCCCCCCCCCCC(=O)O)C(=O)O)C(=O)O)C(=O)N[C@@H](Cc2cccc(c2)CNC(=O)CO4)C(=O)N3)cc1` [Ex-51], in that order: 0.007 nM, less than 1.26 nM and 0.005 nM.
With `COc1ccc(C[C@@H]2NC(=O)[C@H]([C@@H](C)O)NC(=O)[C@@H]3[C@@H]4CCN3C(=O)[C@@H]3Cc5cn(c6ccc(F)cc56)CCCCCCN(Cc5ccc(cc5)CCNC(=O)[C@]5(C)CCCN5C2=O)C(=O)CCC(=O)N[C@@H](C)C(=O)N[C@H](CNC(=O)CCOCCOCC[N+](C)(C)CCNC(=O)Cc2c(C)n(C(=O)c5ccc(Cl)cc5)c5ccc(OC)cc25)C(=O)N[C@@H](Cc2cccc(c2)CNC(=O)CO4)C(=O)N3)cc1` [Ex-52], the Ki in assay [1] (setting [4]) was less than 0.006 nM; in assay [2], less than 1.26 nM; in assay [3] (setting [5]) it was 0.001 nM.
Take `COc1ccc(C[C@@H]2NC(=O)[C@H]([C@@H](C)O)NC(=O)[C@@H]3[C@@H]4CCN3C(=O)[C@@H]3Cc5cn(c6ccc(F)cc56)CCCCCCN(Cc5ccc(cc5)CCNC(=O)[C@]5(C)CCCN5C2=O)C(=O)CCC(=O)N[C@@H](C)C(=O)N[C@H](CNC(=O)COCCOCCNC(=O)CC[C@H](NC(=O)CCOCCOCC[N+](C)(C)CCNC(=O)COCCOCCNC(=O)COCCOCCNC(=O)CC[C@H](NC(=O)CCCCCCCCCCCCCCCCC(=O)O)C(=O)O)C(=O)O)C(=O)N[C@@H](Cc2cccc(c2)CNC(=O)CO4)C(=O)N3)cc1` [Ex-53]: the Ki in assay [1] was 0.01 nM; in assay [2], less than 1.26 nM; in assay [3] it was 0.014 nM.
Regarding `COc1ccc(C[C@@H]2NC(=O)[C@H]([C@@H](C)O)NC(=O)[C@@H]3[C@@H]4CCN3C(=O)[C@@H]3Cc5cn(c6ccc(F)cc56)CCCCCCN(Cc5ccc(cc5)CCNC(=O)[C@]5(C)CCCN5C2=O)C(=O)CCC(=O)N[C@@H](C)C(=O)N[C@H](CNC(=O)CCOCCOCC[N+](C)(C)CCNC(=O)CC[C@H](NC(=O)COCCOCCNC(=O)CC[C@H](NC(=O)CCCCCCCCCCCCCCCCC(=O)O)C(=O)O)C(=O)O)C(=O)N[C@@H](Cc2cccc(c2)CNC(=O)CO4)C(=O)N3)cc1` [Ex-54], the Ki in assay [1] (setting [4]) is 0.021 nM; in assay [2] it was less than 1.26 nM; in assay [3] (setting [5]), 0.014 nM.
For `COc1ccc(C[C@@H]2NC(=O)[C@H]([C@@H](C)O)NC(=O)[C@@H]3[C@@H]4CCN3C(=O)[C@@H]3Cc5cn(c6ccc(F)cc56)CCCCCCN(Cc5ccc(cc5)CCNC(=O)[C@]5(C)CCCN5C2=O)C(=O)CCC(=O)N[C@@H](C)C(=O)N[C@H](CNC(=O)[C@@H](CCCC[N+](C)(C)C)NC(=O)COCCOCCNC(=O)COCCOCCNC(=O)CC[C@H](NC(=O)CC[C@H](NC(=O)CCCCCCCCCCCCCCCCC(=O)O)C(=O)O)C(=O)O)C(=O)N[C@@H](Cc2cccc(c2)CNC(=O)CO4)C(=O)N3)cc1` [Ex-55], in that order: 0.012 nM, less than 1.26 nM and 0.01 nM.
For `COc1ccc(C[C@@H]2NC(=O)[C@H]([C@@H](C)O)NC(=O)[C@@H]3[C@@H]4CCN3C(=O)[C@@H]3Cc5cn(c6ccc(F)cc56)CCCCCCN(Cc5ccc(cc5)CCNC(=O)[C@]5(C)CCCN5C2=O)C(=O)CCC(=O)N[C@@H](C)C(=O)N[C@H](CNC(=O)CCOCCOCC[N+](C)(C)CCNC(=O)COCCOCCNC(=O)COCCOCCNC(=O)CC[C@H](NC(=O)CCCCCCCCCCCCCCC(=O)N[C@@H](CC(=O)O)C(=O)O)C(=O)O)C(=O)N[C@@H](Cc2cccc(c2)CNC(=O)CO4)C(=O)N3)cc1` [Ex-56], in that order: less than 0.006 nM, less than 1.26 nM and 0.004 nM.
For `COc1ccc(C[C@@H]2NC(=O)[C@H]([C@@H](C)O)NC(=O)[C@@H]3[C@@H]4CCN3C(=O)[C@@H]3Cc5cn(c6ccc(F)cc56)CCCCCCN(Cc5ccc(cc5)CCNC(=O)[C@]5(C)CCCN5C2=O)C(=O)CCC(=O)N[C@@H](CNC(=O)CCOCCOCC[N+](C)(C)CCNC(=O)COCCOCCNC(=O)COCCOCCNC(=O)CC[C@H](NC(=O)CCCCCCCCCCCCCCC(=O)O)C(=O)O)C(=O)N[C@H](C)C(=O)N[C@@H](Cc2cccc(c2)CNC(=O)CO4)C(=O)N3)cc1` [Ex-57], in that order: 0.009 nM, less than 1.26 nM and 0.034 nM.
Regarding `COc1ccc(C[C@@H]2NC(=O)[C@H]([C@@H](C)O)NC(=O)[C@@H]3[C@@H]4CCN3C(=O)[C@@H]3Cc5cn(c6ccc(F)cc56)CCCCCCN(Cc5ccc(cc5)CCNC(=O)[C@]5(C)CCCN5C2=O)C(=O)CCC(=O)N[C@@H](CNC(=O)CCOCCOCC[N+](C)(C)CCNC(=O)COCCOCCNC(=O)COCCOCCNC(=O)CC[C@H](NC(=O)CC[C@H](NC(=O)CCCCCCCCCCCCCCCCC(=O)O)C(=O)O)C(=O)O)C(=O)N[C@H](C)C(=O)N[C@@H](Cc2cccc(c2)CNC(=O)CO4)C(=O)N3)cc1` [Ex-58], the Ki was 0.018 nM in assay [1] (setting [4]), less than 1.26 nM in assay [2] and 0.079 nM in assay [3] (setting [5]).
For `COc1ccc(C[C@@H]2NC(=O)[C@H]([C@@H](C)O)NC(=O)[C@@H]3[C@@H]4CCN3C(=O)[C@@H]3Cc5cn(c6ccc(F)cc56)CCCCCCN(Cc5ccc(cc5)CCNC(=O)[C@]5(C)CCCN5C2=O)C(=O)CCC(=O)N[C@@H](CNC(=O)CCOCCOCC[N+](C)(C)CCNC(=O)COCCOCCNC(=O)COCCOCCNC(=O)CC[C@@H](NC(=O)CC[C@@H](NC(=O)CCCCCCCCCCCCCCCCC(=O)O)C(=O)O)C(=O)O)C(=O)N[C@H](C)C(=O)N[C@@H](Cc2cccc(c2)CNC(=O)CO4)C(=O)N3)cc1` [Ex-59], in that order: 0.02 nM, less than 1.26 nM and 0.101 nM.
As for `COc1ccc(C[C@@H]2NC(=O)[C@H]([C@@H](C)O)NC(=O)[C@@H]3[C@@H]4CCN3C(=O)[C@@H]3Cc5cn(c6ccc(F)cc56)CCCCCCN(Cc5ccc(cc5)CCNC(=O)[C@]5(C)CCCN5C2=O)C(=O)CCC(=O)N[C@@H](CNC(=O)COCCOCC[N+](C)(C)CCOCCNC(=O)COCCOCCNC(=O)COCCOCCNC(=O)CC[C@H](NC(=O)CC[C@H](NC(=O)CCCCCCCCCCCCCCC(=O)O)C(=O)O)C(=O)O)C(=O)N[C@H](C)C(=O)N[C@@H](Cc2cccc(c2)CNC(=O)CO4)C(=O)N3)cc1` [Ex-60], the Ki in assay [1] (setting [4]) is 0.008 nM; in assay [2] it was less than 1.26 nM; in assay [3] (setting [5]), 0.062 nM.
Consider `COc1ccc(C[C@@H]2NC(=O)[C@H]([C@@H](C)O)NC(=O)[C@@H]3[C@@H]4CCN3C(=O)[C@@H]3Cc5cn(c6ccc(F)cc56)CCCCCCN(Cc5ccc(cc5)CCNC(=O)[C@]5(C)CCCN5C2=O)C(=O)CCC(=O)N[C@@H](CNC(=O)COCCOCCNC(=O)CC[C@H](NC(=O)CCOCCOCC[N+](C)(C)CCNC(=O)COCCOCCNC(=O)COCCOCCNC(=O)CC[C@H](NC(=O)CCCCCCCCCCCCCCCCC(=O)O)C(=O)O)C(=O)O)C(=O)N[C@H](C)C(=O)N[C@@H](Cc2cccc(c2)CNC(=O)CO4)C(=O)N3)cc1` [Ex-61], for which the Ki in assay [1] (setting [4]) was 0.049 nM; in assay [2], less than 1.26 nM; in assay [3] (setting [5]) it was 0.131 nM.
Consider `COc1ccc(C[C@@H]2NC(=O)[C@H]([C@@H](C)O)NC(=O)[C@@H]3[C@@H]4CCN3C(=O)[C@@H]3Cc5cn(c6ccc(F)cc56)CCCCCCN(Cc5ccc(cc5)CCNC(=O)[C@]5(C)CCCN5C2=O)C(=O)CCC(=O)N[C@@H](CNC(=O)COCCOCC[N+](C)(C)CCNC(=O)COCCOCCNC(=O)COCCOCCNC(=O)CC[C@H](NC(=O)CCCCCCCCOCCCCCCCCC(=O)O)C(=O)O)C(=O)N[C@H](C)C(=O)N[C@@H](Cc2cccc(c2)CNC(=O)CO4)C(=O)N3)cc1` [Ex-62], for which the results for the Ki in assay [1], in assay [2] and in assay [3] were less than 0.006 nM, less than 1.26 nM and 0.038 nM, respectively.
Turning to `COc1ccc(C[C@@H]2NC(=O)[C@H]([C@@H](C)O)NC(=O)[C@@H]3[C@@H]4CCN3C(=O)[C@@H]3Cc5cn(c6ccc(F)cc56)CCCCCCN(Cc5ccc(cc5)CCNC(=O)[C@]5(C)CCCN5C2=O)C(=O)CCC(=O)N[C@@H](CNC(=O)COCCOCCNC(=O)COCCOCCNC(=O)CC[C@H](NC(=O)CCCCCCCCCCCCCCCCC(=O)O)C(=O)O)C(=O)N[C@H](CNC(=O)CCOCCOCC[N+](C)(C)C)C(=O)N[C@@H](Cc2cccc(c2)CNC(=O)CO4)C(=O)N3)cc1` [Ex-63], the results for the Ki in assay [1] (setting [4]), in assay [2] and in assay [3] (setting [5]) were less than 0.006 nM, less than 1.26 nM and 0.045 nM, respectively.
